Reference: patent US7951814B2, “Quinazolinedione derivatives as TRPA1 modulators” (Glenmark Pharmaceuticals, S.A., priority 2008, dated 2011)

Molecular target: T1, Human TRPA1 expressing CHO cells (Homo sapiens, UniProt O75762)
T1 construct: expressed in transfected cells; host or cells: CHO cells (under G-418 selection)
Experiment: 45Calcium uptake assay: inhibition of AITC induced cellular uptake of radioactive calcium
Assay type: cell-based
Details: AITC 30 μM, human TRPA1 CHO cells; for inhibition at 1 µM: 1.0 μM test compound, read-out: Percentage inhibition at 1.0 μM; for inhibition at 10 µM: 10.0 μM test compound, read-out: Percentage inhibition at 10.0 μM; for IC50: read-out: IC50 value (range)
Procedure: The illustrative examples of the present invention are screened for TRPA1 activity according to a modified procedure described in (a) Tóth, A. et al. Life Sciences (2003), 73, 487-498. ([…]. et al. Proc. Natl. Acad. Sci. U.S.A., (2007), 104, 13525-13530. The screening of the compounds can be carried out by other methods and procedures known to persons skilled in the art. Screening for TRPA1 Antagonist Using the ^45Calcium Uptake Assay The inhibition of TRPA1 receptor activation was measured as inhibition of allyl isothiocyanate (AITC) induced cellular uptake of radioactive calcium. […] Final concentration of DMSO in the reaction was 0.5% (v/v). […] Cells were seeded 24 h prior to the assay in 96 well plates so as to get 50,000 cells per well on the day of experiment. Cells were treated with test compounds for 10 min followed by addition of AITC at a final concentration of 30 μM and 5 μCi/ml ^45Ca^+2 for 3 min. […] Radioactivity in the lysate was measured in Packard Top count after addition of liquid scintillant. Concentration response curves were plotted as a % of maximal response obtained in the absence of test antagonist. IC50 value was calculated from concentration response curve by nonlinear regression analysis using GraphPad PRISM software.

T1 sequence (O75762 whole entry): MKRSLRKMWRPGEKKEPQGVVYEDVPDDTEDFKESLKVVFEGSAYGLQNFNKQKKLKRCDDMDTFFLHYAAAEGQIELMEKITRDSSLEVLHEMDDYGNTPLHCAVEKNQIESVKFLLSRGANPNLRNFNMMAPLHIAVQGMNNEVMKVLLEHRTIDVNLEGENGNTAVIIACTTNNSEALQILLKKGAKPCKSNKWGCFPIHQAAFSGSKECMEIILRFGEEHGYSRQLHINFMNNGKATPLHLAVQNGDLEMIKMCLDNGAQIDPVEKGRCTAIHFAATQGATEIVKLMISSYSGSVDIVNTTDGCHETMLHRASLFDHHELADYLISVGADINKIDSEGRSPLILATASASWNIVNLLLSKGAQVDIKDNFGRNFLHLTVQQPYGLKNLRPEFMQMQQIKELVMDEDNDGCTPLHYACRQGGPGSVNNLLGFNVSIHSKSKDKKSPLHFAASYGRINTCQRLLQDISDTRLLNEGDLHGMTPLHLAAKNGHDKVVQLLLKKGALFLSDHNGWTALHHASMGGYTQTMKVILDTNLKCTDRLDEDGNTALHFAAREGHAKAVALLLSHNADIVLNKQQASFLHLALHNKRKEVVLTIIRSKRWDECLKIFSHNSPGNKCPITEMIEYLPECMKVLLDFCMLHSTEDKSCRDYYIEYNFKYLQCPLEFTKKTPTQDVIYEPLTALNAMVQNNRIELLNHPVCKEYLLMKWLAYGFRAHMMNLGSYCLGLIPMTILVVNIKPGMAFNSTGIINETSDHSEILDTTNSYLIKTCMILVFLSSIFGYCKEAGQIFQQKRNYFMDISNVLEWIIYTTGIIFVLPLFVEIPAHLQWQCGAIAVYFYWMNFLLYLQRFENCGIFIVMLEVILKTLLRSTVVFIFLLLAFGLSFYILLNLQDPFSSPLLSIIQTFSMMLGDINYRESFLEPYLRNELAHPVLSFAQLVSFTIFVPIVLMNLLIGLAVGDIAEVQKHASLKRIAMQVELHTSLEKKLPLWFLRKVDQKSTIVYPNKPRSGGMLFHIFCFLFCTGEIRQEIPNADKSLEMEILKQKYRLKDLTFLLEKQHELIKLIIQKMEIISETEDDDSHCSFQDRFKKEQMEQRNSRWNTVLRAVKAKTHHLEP

Structure (SMILES)	inhibition at 1 µM	inhibition at 10 µM	IC50
COc1ccc(-c2csc(NC(=O)Cc3cccc4c3c(=O)n(C)c(=O)n4C)n2)cc1 [Example 17, N1-[4-(4-Methoxyphenyl)-1,3-thiazol-2-yl]-2-(1,3-dimethyl-2,4-dioxo-1,2,3,4-tetrahydro-5-quinazolinyl)acetamide]	30%	75.9%	–
Cc1cc(-c2csc(NC(=O)Cc3cccc4c3c(=O)n(C)c(=O)n4C)n2)ccc1Cl [Example 58, N1-[4-(4-Chloro-3-methylphenyl)-1,3-thiazol-2yl]-2-(1,3-dimethyl-2,4-dioxo-1,2,3,4-tetrahydro-5-quinazolinyl)acetamide]	94.2%	96.7%	> 100 nM
Cn1c(=O)c2c(CC(=O)Nc3nc(-c4cc(F)c(Cl)cc4Cl)cs3)cccc2n(C)c1=O [Example 63, N1-[4-(2,4-Dichloro-5-fluorophenyl)-1,3-thiazol-2-yl]-2-(1,3-dimethyl-2,4-dioxo-1,2,3,4-tetrahydro-5-quinazolinyl)acetamide]	87.1%	96.9%	> 100 nM
Cn1c(=O)c2c(CC(=O)Nc3nc(-c4ccc(F)c(OC(F)(F)F)c4)cs3)cccc2n(C)c1=O [Example 42]	98.3%	99%	50.1 to 100 nM
CCOC(=O)n1c(=O)[nH]c2cccc(CC(=O)Nc3nc(-c4ccc(Cl)cc4)cs3)c2c1=O [Example 28]	2.8%	6.54%	–
Cn1c(=O)c2c(CC(=O)Nc3nc(-c4ccc(F)cc4F)cs3)cccc2n(C)c1=O [Example 31, N1-[4-(2,4-Difluorophenyl)-1,3-thiazol-2-yl]-2-(1,3-dimethyl-2,4-dioxo-1,2,3,4-tetrahydro-5-quinazolinyl)acetamide]	90.1%	97.9%	< 50 nM
Cn1c(=O)c2c(CC(=O)Nc3nc4ccc(F)cc4s3)cccc2n(C)c1=O [Example 76, N1-[6-Fluorobenzo[d][1,3]thiazol-2-yl)-2-(1,3-dimethyl-2,4-dioxo-1,2,3,4-tetrahydro-5-quinazolinyl)acetamide]	33%	28.5%	–
Cn1c(=O)c2c(CC(=O)Nc3nc(-c4c(F)ccc(F)c4F)cs3)cccc2n(C)c1=O [Example 62]	59%	94.2%	> 100 nM
Cn1c(=O)c2c(CC(=O)Nc3nc(-c4cc(F)cc(F)c4)cs3)cccc2n(C)c1=O [Example 34, N1-[4-(3,5-Difluorophenyl)-1,3-thiazol-2-yl]-2-(1,3-dimethyl-2,4-dioxo-1,2,3,4-tetrahydro-5-quinazolinyl)acetamide]	15.8%	85%	–
Cn1c(=O)c2c(CC(=O)Nc3cc(-c4ccc(Cl)cc4)n[nH]3)cccc2n(C)c1=O [Example 79, N1-[3-(4-Chlorophenyl)-1H,5-pyrazolyl]-2-(1,3-dimethyl-2,4-dioxo-1,2,3,4-tetrahydro-5-quinazolinyl)acetamide]	3.81%	8.12%	–
Cn1c(=O)c2c(CC(=O)Nc3nc(-c4cc(Cl)ccc4Cl)cs3)cccc2n(C)c1=O [Example 46, N1-[4-(2,5-Dichlorophenyl)-1,3-thiazol-2-yl]-2-(1,3-dimethyl-2,4-dioxo-1,2,3,4-tetrahydro-5-quinazolinyl)acetamide]	84.3%	87.9%	> 100 nM
Cc1cc2nc(NC(=O)Cc3cccc4c3c(=O)n(C)c(=O)n4C)sc2cc1C [Example 77, N1-(5,6-Dimethylbenzo[d][1,3]thiazol-2-yl)-2-(1,3-dimethyl-2,4-dioxo-1,2,3,4-tetrahydro-5-quinazolinyl)acetamide]	49.1%	95.5%	–
Cn1c(=O)n(CC2CC2)c(=O)c2c(CC(=O)Nc3nc(-c4ccc(C(F)(F)F)c(F)c4)cs3)cccc21 [Example 61, N1-[4-(3-Fluoro-4-trifluoromethylphenyl)-1,3-thiazol-2-yl]-2-(1-methyl-3-cyclopropyl-methyl-2,4-dioxo-1,2,3,4-tetrahydro-5-quinazolinyl)acetamide]	25%	60.4%	–
COc1c(F)cc(-c2csc(NC(=O)Cc3cccc4c3c(=O)n(C)c(=O)n4C)n2)cc1F [Example 71, N1-[4-(3,5-Difluoro-4-methoxyphenyl)-1,3-thiazol-2-yl]-2-(1,3-dimethyl-2,4-dioxo-1,2,3,4-tetrahydroquinazolin-5-yl)acetamide]	83.6%	98.9%	< 50 nM
Cn1c(=O)c2c(CC(=O)Nc3nc(-c4ccc(Cl)cc4Cl)cs3)cccc2n(C)c1=O [Example 45, N1-[4-(2,4-Dichlorophenyl)-1,3-thiazol-2yl]-2-(1,3-dimethyl-2,4-dioxo-1,2,3,4-tetrahydro-5-quinazolinyl)acetamide]	82.1%	95.5%	> 100 nM
Cn1c(=O)c2c(CC(=O)Nc3nc4c(s3)CCc3cc(Cl)ccc3-4)cccc2n(C)c1=O [Example 78]	59.8%	90.3%	> 100 nM
Cn1c(=O)c2c(CC(=O)Nc3nc(-c4ccc(OCC5CC5)c(F)c4)cs3)cccc2n(C)c1=O [Example 60, N1-[4-(4-Cyclopropylmethoxy-3-fluorophenyl)-1,3-thiazol-2yl]-2-(1,3-dimethyl-2,4-dioxo-1,2,3,4-tetrahydro-5-quinazolinyl)acetamide]	1.31%	41.3%	–
Cn1c(=O)c2c(CC(=O)Nc3nc(-c4ccc(F)cc4Cl)cs3)cccc2n(C)c1=O [Example 54]	74.1%	99.8%	< 50 nM
Cc1ccc(-c2csc(NC(=O)Cc3cccc4c3c(=O)n(C)c(=O)n4C)n2)cc1 [Example 24, N1-[4-(4-Methylphenyl)-1,3-thiazol-2yl]-2-(1,3-dimethyl-2,4-dioxo-1,2,3,4-tetrahydro-5-quinazolinyl)acetamide]	83.9%	96.8%	50.1 to 100 nM
Cn1c(=O)c2c(CC(=O)Nc3nc(-c4cc(F)c(OCC5CC5)c(F)c4)cs3)cccc2n(C)c1=O [Example 72, N1-[4-(4-Cyclopropylmethoxy-3,5-difluorophenyl)-1,3-thiazol-2-yl]-2-(1,3-dimethyl-2,4-dioxo-1,2,3,4-tetrahydroquinazolin-5-yl)acetamide]	95.4%	96.5%	< 50 nM
Cn1c(=O)c2c(CC(=O)Nc3ccn(-c4ccc(Cl)cc4F)n3)cccc2n(C)c1=O [Example 82, N1-[1-(4-Chloro-2-Fluorophenyl)-1H-3-pyrazolyl]-2-(1,3-dimethyl-2,4-dioxo-1,2,3,4-tetrahydro-5-quinazolinyl)acetamide]	76.7%	90.7%	> 100 nM
Cn1c(=O)c2c(CC(=O)Nc3nc(-c4ccc(OC(F)(F)F)c(F)c4)cs3)cccc2n(C)c1=O [Example 41]	74.4%	99.7%	< 50 nM
Cn1c(=O)c2c(CC(=O)Nc3nc(-c4ccc(OC(F)F)c(F)c4)cs3)cccc2n(C)c1=O [Example 44, N1-[4-(4-Difluoromethoxyl-3-fluorophenyl)-1,3-thiazol-2-yl]-2-(1,3-dimethyl-2,4-dioxo-1,2,3,4-tetrahydro-5-quinazolinyl)acetamide]	46.2%	99.2%	–
Cn1c(=O)c2c(CC(=O)Nc3nc(C4CCCCC4)cs3)cccc2n(C)c1=O [Example 7, N1-[4-(4-Cyclohexyl)-1,3-thiazol-2yl]-2-(1,3-dimethyl-2,4-dioxo-1,2,3,4-tetrahydro-5-quinazolinyl)acetamide]	62.2%	60.5%	–
Cn1c(=O)c2c(CC(=O)Nc3nc(-c4cccc(Cl)c4F)cs3)cccc2n(C)c1=O [Example 50, N1-[4-(3-Chloro-2-fluorophenyl)-1,3-thiazol-2-yl]-2-(1,3-dimethyl-2,4-dioxo-1,2,3,4-tetrahydro-5-quinazolinyl)acetamide]	95.3%	98.9%	50.1 to 100 nM
Cn1c(=O)c2c(CC(=O)Nc3nc(-c4ccc(F)c(Cl)c4)cs3)cccc2n(C)c1=O [Example 49, N1-[4-(3-Chloro-4-fluorophenyl)-1,3-thiazol-2-yl]-2-(1,3-dimethyl-2,4-dioxo-1,2,3,4-tetrahydro-5-quinazolinyl)acetamide]	98.6%	99%	50.1 to 100 nM
Cn1c(=O)c2c(CC(=O)Nc3nc(-c4c(F)ccc(C(F)(F)F)c4F)cs3)cccc2n(C)c1=O [Example 68, N1-{4-[2,6-Difluoro-3-trifluoromethylphenyl]-1,3-thiazol-2-yl}-2-(1,3-dimethyl-2,4-dioxo-1,2,3,4-tetrahydro-5-quinazolinyl)acetamide]	84.6%	98.6%	> 100 nM
